Assay results taken from US12365674B2, “Inhibitors of histone deacetylase useful for the treatment or prevention of HIV infection” (Merck Sharp & Dohme LLC, priority 2019, dated 2025).

Biological target: T1, HDAC6 (Homo sapiens, UniProt Q9UBN7)
T1 sequence (Q9UBN7 1-1215): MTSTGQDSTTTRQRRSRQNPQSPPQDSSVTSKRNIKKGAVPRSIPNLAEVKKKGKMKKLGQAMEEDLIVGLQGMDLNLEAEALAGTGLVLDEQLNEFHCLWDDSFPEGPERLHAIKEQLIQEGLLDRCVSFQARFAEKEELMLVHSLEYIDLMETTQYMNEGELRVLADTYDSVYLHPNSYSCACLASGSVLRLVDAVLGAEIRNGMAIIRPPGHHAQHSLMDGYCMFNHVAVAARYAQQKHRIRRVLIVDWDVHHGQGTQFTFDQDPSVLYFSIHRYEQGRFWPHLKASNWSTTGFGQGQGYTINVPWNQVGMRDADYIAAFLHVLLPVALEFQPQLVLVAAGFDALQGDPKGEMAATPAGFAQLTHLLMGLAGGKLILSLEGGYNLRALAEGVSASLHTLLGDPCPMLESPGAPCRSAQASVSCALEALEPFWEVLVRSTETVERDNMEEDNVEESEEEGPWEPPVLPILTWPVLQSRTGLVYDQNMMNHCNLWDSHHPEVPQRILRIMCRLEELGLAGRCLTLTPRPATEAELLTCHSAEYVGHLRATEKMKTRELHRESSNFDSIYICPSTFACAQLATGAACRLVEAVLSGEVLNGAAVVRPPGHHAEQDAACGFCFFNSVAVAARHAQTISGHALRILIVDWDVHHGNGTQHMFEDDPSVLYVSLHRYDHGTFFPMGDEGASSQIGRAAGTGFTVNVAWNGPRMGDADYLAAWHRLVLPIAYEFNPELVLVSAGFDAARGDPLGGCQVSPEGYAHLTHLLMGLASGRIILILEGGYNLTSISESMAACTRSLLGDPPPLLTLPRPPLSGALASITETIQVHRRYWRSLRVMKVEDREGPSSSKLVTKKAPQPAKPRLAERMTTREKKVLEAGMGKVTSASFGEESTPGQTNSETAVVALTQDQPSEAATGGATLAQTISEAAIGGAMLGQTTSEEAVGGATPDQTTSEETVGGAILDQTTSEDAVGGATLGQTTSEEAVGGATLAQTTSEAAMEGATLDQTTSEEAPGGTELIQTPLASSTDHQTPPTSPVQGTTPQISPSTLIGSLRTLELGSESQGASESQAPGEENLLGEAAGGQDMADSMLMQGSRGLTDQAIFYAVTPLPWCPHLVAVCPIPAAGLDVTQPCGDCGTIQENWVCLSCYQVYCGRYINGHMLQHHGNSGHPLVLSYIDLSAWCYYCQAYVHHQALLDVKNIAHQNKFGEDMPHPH
Assay: Human HDAC enzyme inhibitor Fluor-de-Lys assay, HDAC6
Type: biochemical
Details: 1.3 nM enzyme, 2.5 μM substrate BML-KI104, 3 h pre-incubation, 60 min reaction; read-out: HDAC6_IC50
From the text: Recombinant human HDAC8 (catalog number BML-SE145-0100) and HDAC10 (catalog number BML-SE559-0050) enzymes, HDAC substrates BML-KI104 and BML-KI178, and HDAC developer solutions BML-KI105 and BML-KI176 were purchased from Enzo Life Sciences (Farmingdale, NY). Recombinant human HDAC5 and HDAC11 were purchased from BPS Bioscience (San Diego, CA)(catalog numbers 50045 and 50021). Substrate Boc-Lys(TFA)-AMC was obtained from Bachem (Bupendorf, Switzerland) (catalog number 1-1985). HDAC inhibitor suberoylanilide hydroxamic acid (SAHA) was obtained from Indofine (Hillsborough Township, NJ) and trichostatin A (TSA) was obtained from Sigma-Aldrich (St. Louis, MO). […] HEPES pH 8.0 was obtained from Boston BioProducts (Ashland, MA), Tween-20 from Fisher Scientific (Hampton, NH)(catalog number BP337), TCEP from Calbiochem and 7.5% bovine serum albumin (BSA) from Life Technologies (Carlsbad, CA) (catalog number 15260037). 384-well, black assay plates were obtained from Corning (Corning, NY) (catalog number 3575).
The histone deacetylase activities of HDAC1, HDAC2, HDAC3, HDAC6, and HDAC8 were measured in modified Fluor-de-Lys assays in 384-well format. In this assay, HDAC enzymes are initially incubated with an ε-acetyl (or -trifluoroacetyl)-L-lysine-containing substrate with a C-terminal amide having aminomethylcoumarin as the amine component. HDACs cleave the ε-acetyl group, rendering the resulting product susceptible to AMC cleavage by trypsin. The released AMC is then detected by its fluorescence.
The HDAC 1, 2 assays employed buffer A, which contained 20 mM HEPES, pH 8.0, 1 mM MgCl2, 137 mM NaCl, 2.7 mM KCl, 0.05% BSA. The HDAC3/SMRT assay employed buffer B, consisting of 20 mM HEPES, pH 8.0, 1 mM MgCl2, 50 mM NaCl, 2.7 mM KCl, 0.05% BSA, 0.005% Tween 20, and 10 μM IP4. The HDAC6 assay employed buffer C, consisting of 20 mM HEPES, pH 8.0, 1 mM MgCl2, 137 mM NaCl, 2.7 mM KCl, 0.5 mM TCEP (Calbiochem) and 0.05% BSA. The HDAC8 assay employed buffer D, consisting of 20 mM HEPES, pH 8.0, 1 mM MgCl2, 100 mM NaCl, 20 mM KCl, 0.1% n-octyl-β-D-glucoside (Anatrace, Maumee, OH) and 0.05% BSA. All steps were performed at room temperature (23° C.). The assay was performed by pre-incubating serial dilutions of test compounds with the target HDAC prior to initiation with substrate. Each compound was titrated in a 10-point dose response, using a 1:3 fold dilution scheme, with 0.15 ul of solution added by ECHO555 to the plate, followed by the addition of 20 μl of the appropriate HDAC isoform diluted in appropriate assay buffer. […] Final conditions used for each assay were: 1. HDAC 1, 0.3 nM total enzyme, 20 μM substrate BML-K1104; 2. HDAC 2, 1.5 nM total enzyme, 40 μM substrate BML-K1104; 3. HDAC 3/SMRT, 0.3 nM total enzyme, 20 μM substrate BML-K1104; 4. HDAC 6, 1.3 nM total enzyme, 2.5 μM substrate BML-K1104; 5. HDAC 8, 1.3 nM total enzyme, 200 μM substrate BML-K1178; the final high dose of test compound was 30 μM. For potent compounds, 900 nM was used as the final high dose. The reactions were stopped and developed by addition of 30 ul of HDAC developer solution containing a saturating level of HDAC inhibitor as follows: 1.

SMILES | IC50 [µM]
N[C@@H](COCCCC(=O)c1ccon1)c1ncc(-c2ccccc2F)[nH]1 [Compound 2, (R)-4-(2-amino-2-(5-(2-fluorophenyl)-1H-imidazol-2-yl)ethoxy)-1-(isoxazol-3-yl)butan-1-one] | > 0.9
CCC(=O)CCCOC[C@H](NC(=O)c1cncs1)c1ncc(-c2cc3ccccc3nc2OC)[nH]1 [Compound 5, N-{(1R)-1-[5-(2-methoxyquinolin-3-yl)-1H-imidazol-2-yl]-2-[(4-oxohexyl)oxy]ethyl}-1,3-thiazole-5-carboxamide] | > 45
CCC(=O)CCCOC[C@H](NC(=O)C12CCN(CC1)CC2)c1ncc(-c2cc3ccccc3nc2OC)[nH]1 [Compound 6, N-{(1R)-1-[5-(2-methoxyquinolin-3-yl)-1H-imidazol-2-yl]-2-[(4-oxohexyl)oxy]ethyl}-1-azabicyclo[2.2.2]octane-4-carboxamide] | > 45
CCC(=O)CCCOC[C@H](NC(=O)[C@H]1CC12CCN(CC)CC2)c1ncc(-c2cc3ccccc3nc2OC)[nH]1 [Compound 7, (1S)-6-ethyl-N-{(1R)-1-[5-(2-methoxyquinolin-3-yl)-1H-imidazol-2-yl]-2-[(4-oxohexyl)oxy]ethyl}-6-azaspiro[2.5]octane-1-carboxamide] | 19
CNC(=O)C(=O)CCCOC[C@H](NC(=O)c1cncs1)c1ncc(-c2cc3ccccc3nc2OC)[nH]1 [Compound 8, N-[(1R)-1-[5-(2-methoxyquinolin-3-yl)-1H-imidazol-2-yl]-2-{[5-(methylamino)-4,5-dioxopentyl]oxy}ethyl]-1,3-thiazole-5-carboxamide] | 5.11
CNC(=O)C(=O)CCCOC[C@H](NC(=O)C12CCN(CC1)CC2)c1ncc(-c2cc3ccccc3nc2OC)[nH]1 [Compound 9, N-[(1R)-1-[5-(2-methoxyquinolin-3-yl)-1H-imidazol-2-yl]-2-{[5-(methylamino)-4,5-dioxopentyl]oxy}ethyl]-1-azabicyclo[2.2.2]octane-4-carboxamide] | > 45
COc1nc2ccccc2cc1-c1cnc([C@H](COCCCC(=O)c2ncco2)NC(=O)c2cncs2)[nH]1 [Compound 10, N-{(1R)-1-[5-(2-methoxyquinolin-3-yl)-1H-imidazol-2-yl]-2-[4-(1,3-oxazol-2-yl)-4-oxobutoxy]ethyl}-1,3-thiazole-5-carboxamide] | > 45
COc1nc2ccccc2cc1-c1cnc([C@H](COCCCC(=O)c2ncco2)NC(=O)[C@H]2CC23CCN(C)CC3)[nH]1 [Compound 11, (1S)-N-{(1R)-1-[5-(2-methoxyquinolin-3-yl)-1H-imidazol-2-yl]-2-[4-(1,3-oxazol-2-yl)-4-oxobutoxy]ethyl}-6-methyl-6-azaspiro[2.5]octane-1-carboxamide] | > 45
COc1nc2ccccc2cc1-c1cnc([C@H](COCCCC(=O)c2ncco2)NC(=O)C23CCN(CC2)CC3)[nH]1 [Compound 12, N-{(1R)-1-[5-(2-methoxyquinolin-3-yl)-1H-imidazol-2-yl]-2-[4-(1,3-oxazol-2-yl)-4-oxobutoxy]ethyl}-1-azabicyclo[2.2.2]octane-4-carboxamide] | > 45
COc1nc2ccccc2cc1-c1cnc([C@H](COCCCC(=O)c2ncco2)NC(=O)CN(C)C)[nH]1 [Compound 13, N-{(1R)-1-[5-(2-methoxyquinolin-3-yl)-1H-imidazol-2-yl]-2-[4-(1,3-oxazol-2-yl)-4-oxobutoxy]ethyl}-N~2~,N~2~- dimethylglycinamide] | > 45
COc1nc2ccccc2cc1-c1cnc([C@H](COCCCC(=O)c2ccon2)NC(=O)CN(C)C)[nH]1 [Compound 14, N-{(1R)-2-(4-isoxazol-3-yl-4-oxobutoxy)-1-[5-(2-methoxyquinolin-3-yl)-1H-imidazol-2-yl]ethyl}-N~2~,N~2~- dimethylglycinamide] | > 45
CN1CC(C(=O)N[C@@H](COCCCC(=O)c2ccon2)c2ncc(-c3ccccc3F)[nH]2)C1 [Compound 15, N-[(1R)-1-[5-(2-fluorophenyl)-1H-imidazol-2-yl]-2-(4-isoxazol-3-yl-4-oxobutoxy)ethyl]-1-methylazetidine-3-carboxamide] | > 0.9
CN1CC(C(=O)N[C@@H](COCCCC(=O)c2ccon2)c2[nH]c(-c3ccc(F)cc3)nc2Cl)C1 [Compound 16, N-[(1R)-1-[4-chloro-2-(4-fluorophenyl)-1H-imidazol-5-yl]-2-(4-isoxazol-3-yl-4-oxobutoxy)ethyl]-1-methylazetidine-3-carboxamide] | > 0.9
CN(C)CC(=O)N[C@@H](COCCCC(=O)c1ccon1)c1[nH]c(-c2ccc(F)cc2)nc1Cl [Compound 17, N-[(1R)-1-[4-chloro-2-(4-fluorophenyl)-1H-imidazol-5-yl]-2-(4-isoxazol-3-yl-4-oxobutoxy)ethyl]-N~2~,N~2~- dimethylglycinamide] | > 0.9
CN1CCC2(CC1)C[C@@H]2C(=O)N[C@@H](COCCCC(=O)c1ccon1)c1[nH]c(-c2ccc(F)cc2)nc1Cl [Compound 18, (1S)-N-[(1R)-1-[4-chloro-2-(4-fluorophenyl)-1H-imidazol-5-yl]-2-(4-isoxazol-3-yl-4-oxobutoxy)ethyl]-6-methyl-6-azaspiro[2.5]octane-1-carboxamide] | > 0.9
COc1cc2nc(C)ccc2cc1-c1cnc([C@H](COCCCC(=O)c2cc(C)on2)NC(=O)C2CN(C)C2)[nH]1 [Compound 19, N-{(1R)-1-[5-(7-methoxy-2-methylquinolin-6-yl)-1H-imidazol-2-yl]-2-[4-(5-methylisoxazol-3-yl)-4-oxobutoxy]ethyl}-1-methylazetidine-3-carboxamide] | 0.469
